Reference: patent US20220257596A1, “METHODS FOR TREATING MEIBOMIAN GLAND DYSFUNCTION WITH LIVER X RECEPTOR AGONISTS” (Novartis AG, priority 2019, published 2022)

Columns and labels:
[1] = test system: SCD1 protein production in SZ95-SCD1-HiBit cells; assay: Measurement of SCD1 expression in SZ95-SCD1-HiBit cells (HiBiT assay); assay type: cell-based; settings: Homo sapiens; for EC50: SZ95-SCD1-HiBit cells, 48h incubation, top concentration 18 μM; for Emax: percent compared to the reference compound (Compound H), 48h, read-out: HiBit Amax
Description: SZ95-SCD1-HiBit cells were seeded in 384-well cell culture white plates at a density of 3000 cells/30 ul. Water is added to edge wells to avoid evaporation. Cells were incubated in a humidified incubator with 5% CO2 at 37° C. overnight. Tested compounds were diluted at a ratio of 1:3 using Agilent BRAVO Automated Liquid Handling Platform and added to cells at final concentrations starting from 18 μM. Compound H was used as a reference compound in each plate. Cells in the assay plate were incubated in a humidified incubator with 5% CO2 at 37° C. for 48h.
The assay plates were removed from the incubator and allowed to equilibrate to room temperature. Nano-Glo® HiBiT Detection Reagent (Promega; a mixture of Nano-Glo HiBiT Detection Buffer, Nano-Glo HiBiT Detection Substrate, and LgBiT protein) was added into assay plates, at a volume equal to cell culture medium in each well. Plates were placed on an orbital shaker at a speed of 300-600 rpm for 10 min at room temperature, and read on an EnVision Plate Reader using luminescence detection with a 1 second read time.
The assay measures the increase in SCD1 protein production in vitro. Amax refers to the percent […] of the tested compound compared to the reference compound.

[2] = test system: SZ95 (immortalized human sebaceous gland cells) cells; assay: Sentinel lipid assay (desaturation index in SZ95 sebocytes); assay type: cell-based; settings: for EC50: SZ95 cells, 72h incubation, top concentration 10 μM, desaturation index, read-out: SLA EC50; for Emax: percent compared to the reference compound (Compound H), 72h, read-out: SLA Amax
Description: SZ95 (immortalized human sebaceous gland cells) cells were seeded in Greiner bio-one 96-well polypropylene plates that were pre-treated with 50 μg/ml Human Plasma Fibronectin (Thermo Fisher Scientific) at a density of 10^4 cells/135 μl. Cells were incubated in a humidified incubator with 5% CO2 at 37° C. overnight. Test compounds were diluted at a ratio of 1:3 and added to cells at final concentrations starting from 10 μM. Compound H was used as a positive control reference compound in each plate. Cells in the assay plate were incubated in a humidified incubator with 5% CO2 at 37° C. for 72h.
Culture medium was removed from the cells and cells in culture plates were washed with ice cold phosphate buffered saline three times. Plates were heat sealed and stored in a −80° C. freezer prior to Sentinel lipid assay.
Sentinel lipid assay: The sentinel lipid assay was used quantify the change in the global desaturation index in SZ95 sebocytes upon administration of LXR agonist compounds. The assay measures a smaller subset of lipid analytes in […] (termed “sentinel lipids”) which would model the global changes the population of both saturated and desaturated lipids in the cells. In order to define this smaller subset of lipids, a complete lipid profile was recorded on dose response curves (eight levels from 4 nM to 10 uM) of Compounds A-N. An elastic net regression model was applied separately to both the saturated and desaturated lipids to determine the minimum combination of coefficients and analytes which could be used to adequately model the total population of lipids. The elastic net model was able to reduce the behavior of 425 lipids to 11 lipids and the correlation between the desaturation indices observed using the complete set of lipids with from the 11 sentinel lipids was 0.96.
A medium throughput assay was created using this reduced set of sentinel lipids. A single batch is defined as triplicate examples of three unique plates (i.e., a single batch of cells is used to create nine plates for LC-MSMS analysis). Lipids were extracted from the cells using a 1:1 mixture of methylene chloride/methanol containing 10 nM of deuterated standards of triglycerides, which are used as internal standards for quantitating the lipid abundance. The lipids were separated prior to mass spectrometric analysis using a five minute HPLC gradient. The abundance of the sentinel lipids and the internal standards are measured using multiple reaction monitor mode (MRM) on a triple quadrupole mass spectrometer. The data was transformed from total ion current to nmoles/10^6 cells, which are multiplied by the coefficients from the elastic net model to determine the effective desaturated and saturated content, and therein the desaturation index of the dosed cells. In order to compare compounds from multiple batches with one another, the measure raw desaturation index was normalized by dividing it by the desaturation index of the DMSO dosed cells, and all data was assessed as the fraction by which the compound increases the desaturation index above 1. The Amax value refers to the percent […] of the tested compound compared to the reference compound.

Structure (SMILES) | EC50 [1] | Emax [1] | EC50 [2] | Emax [2]
O=C(O)Cn1ccc2c(OCCCN(Cc3cccc(C(F)(F)F)c3Cl)CC(c3ccccc3)c3ccccc3)cccc21 [Compound A, 2-(4-(3-((2-chloro-3-(trifluoromethyl)benzyl)(2,2-diphenylethyl)amino)propoxy)-1H-indol-1-yl)acetic acid] | 4.9 nM | 94% | 7.3 nM | 104%
CC(C)[C@@H]1CN(c2ccc(CO)c(S(C)(=O)=O)c2)CCN1c1ncc(CO)c(C(F)(F)F)n1 [Compound D, (R)-(2-(4-(4-(hydroxymethyl)-3-(methylsulfonyl)phenyl)-2-isopropylpiperazin-1-yl)-4-(trifluoromethyl)pyrimidin-5-yl)methanol] | 2 nM | 66.2% | 41.8 nM | 65.6%
CCCc1c(OCCCN(C)c2cnc(CC(=O)O)cn2)ccc2c(C(F)(F)F)noc12 [Compound E, 2-(5-(methyl(3-((7-propyl-3-(trifluoromethyl)benzo[d]isoxazol-6-yl)oxy)propyl)amino)pyrazin-2-yl)acetic acid] | 29.4 nM | 77.9% | 69 nM | 81.8%
O=S(=O)(c1ccccc1)N(CC(F)(F)F)c1ccc(C(O)(C(F)(F)F)C(F)(F)F)cc1 [Compound F, N-(4-(1,1,1,3,3,3-hexafluoro-2-hydroxypropan-2-yl)phenyl)-N-(2,2,2-trifluoroethyl)benzenesulfonamide] | 47.4 nM | 76.1% | 190 nM | 89.8%
O=C(O)Cc1cccc(OCCCN(Cc2cccc(C(F)(F)F)c2Cl)CC(c2ccccc2)c2ccccc2)c1 [Compound H, 2-(3-(3-((2-chloro-3-(trifluoromethyl)benzyl)(2,2-diphenylethyl)amino)propoxy)phenyl)acetic acid] | 113 nM | 92% | 88.1 nM | 97.4%
CC(C)(O)c1cn(-c2ccc(-c3cc(F)c(CO)c(S(C)(=O)=O)c3)cc2F)c(C(C)(C)c2c(Cl)cccc2Cl)n1 [Compound I, 2-(2-(2-(2,6-dichlorophenyl)propan-2-yl)-1-(3,3′-difluoro-4′-(hydroxymethyl)-5′-(methylsulfonyl)-[1,1′-biphenyl]-4-yl)-1H-imidazol-4-yl)propan-2-ol] | > 18000 nM | 43.3% | 4520 nM | 60.2%

Further lines, with some results ahead:

EC50 [1] | Structure (SMILES) | Emax [1] | EC50 [2] | Emax [2]
323 nM | CCN(Cc1ccccc1)c1ccc(C(O)(C(F)(F)F)C(F)(F)F)cc1Cl [Compound J, 2-(4-(benzyl(ethyl)amino)-3-chlorophenyl)-1,1,1,3,3,3-hexafluoropropan-2-ol] | 77.5% | 1470 nM | 58%
538 nM | CN(C)C(=O)c1ccc(-c2cnc(N3CCN(C(=O)C(C)(C)c4ccccc4)CC3)c(C#N)c2)cc1Cl [Compound K, 2-chloro-4-(5-cyano-6-(4-(2-methyl-2-phenylpropanoyl)piperazin-1-yl)pyridin-3-yl)-N,N-dimethylbenzamide] | 66% | 458 nM | 151%
> 18000 nM | Fc1ccc(-c2c3cccc(C(F)(F)F)c3nn2Cc2ccc(F)cc2Cl)cc1 [Compound L, 2-(2-chloro-4-fluorobenzyl)-3-(4-fluorophenyl)-7-(trifluoromethyl)-2H-indazole] | 48.4% | > 10000 nM | 33.3%
> 18000 nM | CN(C)C(=O)c1ccc(N2CCC(C3CCN(S(=O)(=O)c4ccccc4Cl)CC3)CC2)cc1Cl [Compound M, 2-chloro-4-(1′-((2-chlorophenyl)sulfonyl)-[4,4′-bipiperidin]-1-yl)-N,N-dimethylbenzamide] | 39.1% | > 10000 nM | 29.2%
